IC50 data for 33 compounds are collected here from patent publication US9890171B2, “Aldosterone synthase inhibitors” (Boehringer Ingelheim International GmbH, priority 2014, dated 2018).

Chain of aldosterone synthase (CYP11B2) (A0A2K5UPL9 1-503): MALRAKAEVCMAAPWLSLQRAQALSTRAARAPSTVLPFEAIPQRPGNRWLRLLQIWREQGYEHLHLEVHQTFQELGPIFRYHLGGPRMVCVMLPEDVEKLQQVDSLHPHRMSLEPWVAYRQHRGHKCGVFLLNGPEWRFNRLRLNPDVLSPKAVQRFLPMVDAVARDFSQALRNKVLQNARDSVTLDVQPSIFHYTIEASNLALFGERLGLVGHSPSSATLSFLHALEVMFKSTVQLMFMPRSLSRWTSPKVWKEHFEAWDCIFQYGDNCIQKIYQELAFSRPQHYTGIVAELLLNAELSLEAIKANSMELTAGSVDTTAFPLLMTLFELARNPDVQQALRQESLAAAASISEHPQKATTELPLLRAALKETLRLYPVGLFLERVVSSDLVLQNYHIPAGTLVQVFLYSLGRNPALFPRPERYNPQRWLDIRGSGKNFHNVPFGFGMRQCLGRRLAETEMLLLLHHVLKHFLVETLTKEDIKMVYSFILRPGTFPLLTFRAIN

This assay deals with aldosterone synthase (CYP11B2) (Macaca fascicularis, UniProt A0A2K5UPL9). Put plainly: aldosterone synthase inhibition assay. Format: biochemical, cynomolgus monkey. As to conditions: cynomolgus adrenal gland mitochondria, 2 μM corticosterone, aldosterone quantified by mass spectrometry. Put shortly:
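Cynomolgus adrenal mitochondria ([…]) used as CYP11B2 source with 2 μM corticosterone in 100 mM potassium phosphate pH 7.4, 1% DMSO; reaction started with 1 mM NADPH, run 60-90 min at 37° C. Aldosterone measured by mass spectrometry; IC50 from 4-parameter logistic fit, no-NADPH blank as 0%.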
`CC1(O)CCOc2ccc(-c3cncc4c3COCC4O)cc21` (single isomer, unassigned) [Compound 140, 8-(4-Hydroxy-4-methyl-chroman-6-yl)-3,4-dihydro-1H-pyrano[4,3-c]pyridin-4-ol]: half-maximal inhibition (IC50) was put at 12000 nM.

`OC1COCc2c(-c3ccc4c(c3)C(F)(F)CCO4)cncc21` (single isomer, unassigned) [Compound 141, 8-(4,4-Difluoro-chroman-6-yl)-3,4-dihydro-1H-pyrano[4,3-c]pyridin-4-ol]: the IC50 – broadly, the midpoint of a concentration-inhibition curve – turned out to be 339 nM.

Take `OC1COCc2c(-c3ccc4c(c3)C(F)(F)CCO4)cncc21` (single isomer, unassigned) [Compound 142, 8-(4,4-Difluoro-chroman-6-yl)-3,4-dihydro-1H-pyrano[4,3-c]pyridin-4-ol]: the IC50 amounted to 118 nM.

For `CCC(=O)NC1COCc2c(-c3ccc4c(c3)C(F)(F)CCO4)cncc21` (single isomer, unassigned) [Compound 143, N-[8-(4,4-Difluoro-chroman-6-yl)-3,4-dihydro-1H-pyrano[4,3-c]pyridin-4-yl]-propionamide], the IC50 was determined as 27.9 nM.

For `CCS(=O)(=O)NC1COCc2c(-c3ccc4c(c3)C(F)(F)CCO4)cncc21` (single isomer, unassigned) [Compound 144, Ethanesulfonic acid [8-(4,4-difluoro-chroman-6-yl)-3,4-dihydro-1H-pyrano[4,3-c]pyridin-4-yl]-amide], half-maximal inhibition (IC50) required 470 nM.

`O=C1NCCOc2cc(-c3cncc4c3COCC4O)ccc21` (single isomer, unassigned) [Compound 145, 8-(4-Hydroxy-3,4-dihydro-1H-pyrano[4,3-c]pyridin-8-yl)-3,4-dihydro-2H-benzo[f][1,4]oxazepin-5-one] yielded an IC50 of 738 nM. This IC50 lies about 1.6-fold higher than the previous one.

Consider `O=C1NCCOc2cc(-c3cncc4c3COCC4O)ccc21` (single isomer, unassigned) [Compound 146, 8-(4-Hydroxy-3,4-dihydro-1H-pyrano[4,3-c]pyridin-8-yl)-3,4-dihydro-2H-benzo[f][1,4]oxazepin-5-one], for which the IC50 is 9730 nM.

Regarding `CCC(=O)NC1COCc2c(-c3ccc4c(c3)OCCNC4=O)cncc21` (single isomer, unassigned) [Compound 147, N-[8-(5-Oxo-2,3,4,5-tetrahydro-benzo[f][1,4]oxazepin-8-yl)-3,4-dihydro-1H-pyrano[4,3-c]pyridin-4-yl]-propionamide], half-maximal inhibition (IC50) required 1690 nM.

For `OC1COCc2c(-c3ccc4c(c3)COCCC4(F)F)cncc21` (single isomer, unassigned) [Compound 148, 8-(5,5-Difluoro-1,3,4,5-tetrahydro-benzo[c]oxepin-8-yl)-3,4-dihydro-1H-pyrano[4,3-c]pyridin-4-ol], half-maximal inhibition (IC50) required 83.7 nM.

`Cn1ncc2c(F)cc(-c3cncc4c3COCC4N)cc21` (single isomer, unassigned) [Compound 149, 8-(4-Fluoro-1-methyl-1H-indazol-6-yl)-3,4-dihydro-1H-pyrano[4,3-c]pyridin-4-ylamine]: half-maximal inhibition (IC50) required 17.3 nM.

Regarding `CCC(=O)NC1COCc2c(-c3cc(F)c4cnn(C)c4c3)cncc21` (single isomer, unassigned) [Compound 150, N-[8-(4-Fluoro-1-methyl-1H-indazol-6-yl)-3,4-dihydro-1H-pyrano[4,3-c]pyridin-4-yl]-propionamide], the IC50 worked out at 17.4 nM.

`CC(=O)NC1COCc2c(-c3ccc4c(c3)CCC4=O)cncc21` (single isomer, unassigned) [Compound 151, N-[8-(1-Oxo-indan-5-yl)-3,4-dihydro-1H-pyrano[4,3-c]pyridin-4-yl]-acetamide] came in with an IC50 of 4880 nM. Against the preceding compound, the IC50 is about 280-fold higher.

Take `CC(=O)NC1COCc2c(-c3ccc4c(c3)CCC4=O)cncc21` (single isomer, unassigned) [Compound 152, N-[8-(1-Oxo-indan-5-yl)-3,4-dihydro-1H-pyrano[4,3-c]pyridin-4-yl]-acetamide]: the 50% inhibitory concentration (IC50) was found to be 50.2 nM.

Turning to `CC(C)(O)CC(=O)NC1COCc2c(-c3ccc4c(c3)CCC4=O)cncc21` (single isomer, unassigned) [Compound 153, 3-Hydroxy-3-methyl-N-[8-(1-oxo-indan-5-yl)-3,4-dihydro-1H-pyrano[4,3-c]pyridin-4-yl]-butyramide], the IC50 was determined as 70 nM. This IC50 and that of the compound before are within 1.5-fold of each other.

As for `CC(=O)NC1COCc2c(-c3ccc4oc(=O)ccc4c3)cncc21` (single isomer, unassigned) [Compound 154, N-[8-(2-Oxo-2H-chromen-6-yl)-3,4-dihydro-1H-pyrano[4,3-c]pyridin-4-yl]-acetamide], the IC50 is 26.3 nM.

Take `CCC(=O)NC1COCc2c(-c3ccc4cnn(C)c4c3)cncc21` (single isomer, unassigned) [Compound 155, N-[8-(1-Methyl-1H-indazol-6-yl)-3,4-dihydro-1H-pyrano[4,3-c]pyridin-4-yl]-propionamide]: the IC50 stood at 3800 nM. This IC50 lies about 140-fold higher than the previous one.

In the case of `CCC(=O)NC1COCc2c(-c3ccc4onc(C)c4c3)cncc21` (single isomer, unassigned) [Compound 156, N-[8-(3-Methyl-benzo[d]isoxazol-5-yl)-3,4-dihydro-1H-pyrano[4,3-c]pyridin-4-yl]-propionamide], the IC50 turned out to be 312 nM.

On to `CCS(=O)(=O)NC1COCc2c(-c3ccc4c(c3)CCC4=O)cncc21` (single isomer, unassigned) [Compound 157, Ethanesulfonic acid [8-(1-oxo-indan-5-yl)-3,4-dihydro-1H-pyrano[4,3-c]pyridin-4-yl]-amide], for which the midpoint of inhibition, the IC50, lay at 46 nM.

The compound `CCS(=O)(=O)NC1COCc2c(-c3ccc4oc(=O)ccc4c3)cncc21` (single isomer, unassigned) [Compound 158, Ethanesulfonic acid [8-(2-oxo-2H-chromen-6-yl)-3,4-dihydro-1H-pyrano[4,3-c]pyridin-4-yl]-amide] had an IC50 of 13 nM. This IC50 lies about 3.5-fold lower than the previous one.

With `CCS(=O)(=O)NC1COCc2c(-c3ccc4onc(C)c4c3)cncc21` (single isomer, unassigned) [Compound 159, Ethanesulfonic acid [8-(3-methyl-benzo[d]isoxazol-5-yl)-3,4-dihydro-1H-pyrano[4,3-c]pyridin-4-yl]-amide], the concentration for half-maximal inhibition (IC50) is 797 nM.

`NC(=O)N1CCCc2cc(-c3cncc4c3C(O)COC4)cnc21` (single isomer, unassigned) [Compound 161, 6-(4-Hydroxy-3,4-dihydro-1H-pyrano[3,4-c]pyridin-5-yl)-3,4-dihydro-2H-[1,8]naphthyridine-1-carboxylic acid amide]: the IC50 turned out to be 35.3 nM.

On to `NC(=O)N1CCCc2cc(-c3cncc4c3C(O)COC4)cnc21` (single isomer, unassigned) [Compound 162, 6-(4-Hydroxy-3,4-dihydro-1H-pyrano[3,4-c]pyridin-5-yl)-3,4-dihydro-2H-[1,8]naphthyridine-1-carboxylic acid amide], for which the IC50 was determined as 71.4 nM.

In turn, `NC(=O)N1CCCc2cc(-c3cncc4c3COCC4O)cnc21` (single isomer, unassigned) [Compound 163, 6-(4-Hydroxy-3,4-dihydro-1H-pyrano[4,3-c]pyridin-8-yl)-3,4-dihydro-2H-[1,8]naphthyridine-1-carboxylic acid amide] displayed an IC50 of 44.3 nM. This IC50 lies about 1.6-fold lower than the previous one.

For the compound `NC(=O)N1CCCc2cc(-c3cncc4c3COCC4O)cnc21` (single isomer, unassigned) [Compound 164, 6-(4-Hydroxy-3,4-dihydro-1H-pyrano[4,3-c]pyridin-8-yl)-3,4-dihydro-2H-[1,8]naphthyridine-1-carboxylic acid amide], the IC50 worked out at 41.5 nM.

On to `Cn1ncc2ccc(-c3cncc4c3C(O)COC4)cc21` (single isomer, unassigned) [Compound 165, 5-(1-Methyl-1H-indazol-6-yl)-3,4-dihydro-1H-pyrano[3,4-c]pyridin-4-ol], for which it took 224 nM to reach half-maximal inhibition (IC50). Against the preceding compound, the IC50 is about 5.4-fold higher.

Turning to `Cn1ncc2ccc(-c3cncc4c3C(O)COC4)cc21` (single isomer, unassigned) [Compound 166, 5-(1-Methyl-1H-indazol-6-yl)-3,4-dihydro-1H-pyrano[3,4-c]pyridin-4-ol], half-maximal inhibition (IC50) required 36.5 nM. Compared with the last compound, the IC50 is about 6.1-fold lower.

Take `OC1COCc2cncc(-c3ccc4cnccc4c3)c21` (single isomer, unassigned) [Compound 167, 5-Isoquinolin-6-yl-3,4-dihydro-1H-pyrano[3,4-c]pyridin-4-ol]: the IC50 was 156 nM.

The compound `OC1COCc2cncc(-c3ccc4cnccc4c3)c21` (single isomer, unassigned) [Compound 168, 5-Isoquinolin-6-yl-3,4-dihydro-1H-pyrano[3,4-c]pyridin-4-ol] showed an IC50 of 40.5 nM.

Compound `Cn1ncc2ccc(-c3cncc4c3COCC4(C)O)cc21` (single isomer, unassigned) [Compound 169, 4-Methyl-8-(1-methyl-1H-indazol-6-yl)-3,4-dihydro-1H-pyrano[4,3-c]pyridin-4-ol] displayed an IC50 of 13.9 nM.

Turning to `Cn1ncc2ccc(-c3cncc4c3COCC4(C)O)cc21` (single isomer, unassigned) [Compound 170, 4-Methyl-8-(1-methyl-1H-indazol-6-yl)-3,4-dihydro-1H-pyrano[4,3-c]pyridin-4-ol], the IC50 turned out to be 7.8 nM.

`Cn1nc(F)c2ccc(-c3cncc4c3COCC4(C)O)cc21` (single isomer, unassigned) [Compound 171, 8-(3-Fluoro-1-methyl-1H-indazol-6-yl)-4-methyl-3,4-dihydro-1H-pyrano[4,3-c]pyridin-4-ol] had an IC50 of 19.1 nM. Compared with the last compound, the IC50 is about 2.4-fold higher.

Regarding `Cn1nc(F)c2ccc(-c3cncc4c3COCC4(C)O)cc21` (single isomer, unassigned) [Compound 172, 8-(3-Fluoro-1-methyl-1H-indazol-6-yl)-4-methyl-3,4-dihydro-1H-pyrano[4,3-c]pyridin-4-ol], the IC50 is 10.2 nM.

Turning to `Cn1ncc2c(C#N)cc(-c3cncc4c3COCC4(C)O)cc21` (single isomer, unassigned) [Compound 173, 6-(4-Hydroxy-4-methyl-3,4-dihydro-1H-pyrano[4,3-c]pyridin-8-yl)-1-methyl-1H-indazole-4-carbonitrile], the IC50 worked out at 340 nM. Against the preceding compound, the IC50 is about 33-fold higher.
